According to US12268694B2, “Combination pharmaceutical agents as RSV inhibitors” (Enanta Pharmaceuticals, Inc., priority 2017, dated 2025):
Where two headings read alike, the source gives them in different places.

Tests used:
[1] = system: RSV genotype B, strain 9320; assay: RSV-B assay: A549 cells infected with RSV-B, qPCR or ATPlite readout; assay type: cell-based; conditions: read-out: Human RSV-B EC50
From the text: HEp-2 cells, (originally derived from tumors grown in irradiated-cortisonised weanling rats that had been injected with epidermoid carcinoma tissue from a person's larynx, but later found to be indistinguishable from HeLa cells by PCR DNA analysis), were used for the culturing of genotype B, strain 9320. Flasks were inoculated with RSV-B and viral stocks were collected once cytopathic effect (CPE) was greater than […]. Viral stocks in 25% sucrose media were snap frozen using liquid nitrogen to increase viral stability. Viral stock titers were quantified by tissue culture infectious dose 50% (TCID50) using 8,000 cells per well and 5-fold viral dilutions across a 96-well plate, cultured for 4 days. Viral stock titers were also quantified by a plaque forming unit assay, as described elsewhere.
The assay is run as follows: A549 cells (originally derived through explant culture from a person's carcinomatous lung tissue) are seeded into the inner 60 wells of a 96-well plate at 3,000 cells per well in a volume of 50 μL using A549 growth media (F-12K Media, 1% Penn/Strep, 1% nonessential amino acids, 10% heat-inactivated FBS). 2-fold serial dilutions of control and test compounds are added to the wells in duplicate in a total volume of 25 μL. Viral stock is then added to the wells at a multiplicity of infection (MOI) of 0.5 in a volume of 25 μL, bringing the total volume of each well to 100 μL. The MOI is calculated using the PFU/mL, or TCID50 if unavailable. Each 96-well plate has a control column of 6 wells with cells and virus but no compound (negative control, max CPE), a column with cells but no compound or virus (positive control, minimum CPE), and a column with no cells or virus or compound (background plate/reagent control). The control wells with cells but no virus are given an additional 25 μL of growth media containing an equal quantity of sucrose as those wells receiving the viral stock in order to keep consistent in media and volume conditions. The outer wells of the plate are filled with 125 μL of moat media (DMEM, 1% Penn/Strep) to act as a thermal and evaporative moat around the test wells. 6 days post infection, the plates are read using qPCR or ATP lite (50 μL added per well), which quantifies the amount of ATP (a measure of cell health) present in each well. Assay plates treated with APTlite are read using the Envision luminometer. […] EC50 ranges are as follows: A <0.4 μM; B 0.4-0.8 μM; C >0.8 μM.

[2] = system: genotype A, "Long" strain RSV; assay: RSV-A assay: CPE protection in HEp-2 cells, ATPlite readout; assay type: cell-based, human respiratory syncytial virus
Method in brief: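 EC50 derives from ATPlite luminescence after 5-day culture of RSV Long-infected (MOI 0.1) HEp-2 cells, seeded 8,000/well, exposed to duplicate 2-fold compound series. CC50 comes from an identical plate receiving medium instead of virus.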

[3] = system: HEp-2 cells; assay: Cytotoxicity in parallel to the RSV-A assay (no virus), ATPlite readout; assay type: cell-based, human
Protocol: Following extensive parameter testing, the final assay is run as follows: HEp-2 cells are seeded into the inner 60 wells of a 96-well plate at 8,000 cells per well in a volume of 50 μL using Growth Media (DMEM without phenol red, 1% L-Glut, 1% Penn/Strep, 1% nonessential amino acids, 10% heat-inactivated FBS). 2-fold serial dilutions of control and test compounds are added to the wells in duplicate in a total volume of 25 μL. Viral stock is then added to the wells at a multiplicity of infection (MOI) of 0.1 in a volume of 25 μL, bringing the total volume of each well to 100 μL. The MOI is calculated using the PFU/mL, or TCID50 if unavailable. Each 96-well plate has a control column of 6 wells with cells and virus but no compound (negative control, max CPE), a column with cells but no compound or virus (positive control, minimum CPE), and a column with no cells or virus or compound (background plate/reagent control). The control wells with cells but no virus are given an additional 25 μL of growth media containing an equal quantity of sucrose as those wells receiving the viral stock in order to keep consistent in media and volume conditions. The outer wells of the plate are filled with 125 μL of moat media (DMEM, 1% Penn/Strep) to act as a thermal and evaporative moat around the test wells. Following a 5-day incubation period, the plates are read using ATPlite (50 μL added per well), which quantifies the amount of ATP (a measure of cell health) present in each well. Assay plates are read using the Envision luminometer. In parallel, cytotoxicity is examined on an additional 96-well plate treated in an identical manner, but substituting the 25 μL of viral stock for 25 μL of growth media. […] EC50 ranges are as follows: A <0.4 μM; B 0.4-0.8 μM; C >0.8 μM and CC50 ranges are as follows: A >50 μM; B 10-50 μM; C <10 μM.

[4] = HEp-2 cells, RSV-A Long strain, ATPlite readout, read-out: Human RSV-A (“Long” strain) EC50
[5] = human respiratory syncytial virus, HEp-2, read-out: Human RSV-A (“Long” strain) EC50
[6] = human respiratory syncytial virus, A549, 144 h

Structure (SMILES) | EC50 ([1]; A549 cells, strain 9320, MOI 0.5, 6 days post infection) [nM] | EC50 [2, 4] [nM] | CC50 [3] [µM] | EC50 [2, 5] [nM] | EC50 [1, 6] [nM]
O=C1Nc2c(F)cccc2C(c2ccccc2)=N[C@@H]1Nc1nnc(-c2cccnc2N2CCOCC2)o1 (single isomer, unassigned) [Example 358] | < 400 | < 400 | – | – | –
O=C1Nc2ccccc2C(c2ccccc2)=NC1Nc1ncc(-c2ccccc2)o1 (centres unmarked) [Example 84] | – | – | 10 to 50 | > 800 | –
O=C1Nc2ccccc2C(c2ccccc2)=NC1Nc1nnc(-c2ccccc2)[nH]1 (centres unmarked) [Example 86] | – | – | > 50 | > 800 | –
O=C1Nc2ccccc2C(c2ccccc2)=NC1Nc1nc(-c2ccccc2)ns1 (centres unmarked) [Example 87] | – | – | 10 to 50 | > 800 | –
O=C1Nc2ccccc2C(c2ccccc2)=NC1Nc1nc(N2CCOCC2)ns1 (centres unmarked) [Example 88] | – | – | 10 to 50 | > 800 | –
O=C1Nc2ccccc2C(c2ccccc2)=NC1Nc1nc(-c2ccccc2)no1 (centres unmarked) [Example 89] | – | > 800 | 10 to 50 | – | –
O=C1Nc2ccccc2C(c2ccccc2)=NC1Nc1nc(-c2ccccc2)cs1 (centres unmarked) [Example 90] | – | – | < 10 | > 800 | –
O=C1Nc2ccccc2C(c2ccccc2)=NC1Nc1cc(-c2ccccc2)ncn1 (centres unmarked) [Example 92] | – | – | 10 to 50 | > 800 | –
O=C1Nc2ccccc2C(c2ccccc2)=NC1Nc1cc(N2CCOCC2)ncn1 (centres unmarked) [Example 93] | – | – | 10 to 50 | > 800 | –
O=C1Nc2ccccc2C(c2ccccc2)=NC1Nc1cc(Oc2ccccc2)ncn1 (centres unmarked) [Example 94] | – | – | 10 to 50 | > 800 | –
O=C1Nc2ccccc2C(c2ccccc2)=NC1Nc1ccc(-c2ccccc2)nn1 (centres unmarked) [Example 95] | – | – | – | 400 to 800 | > 800
O=C1Nc2ccccc2C(c2ccccc2)=NC1Nc1ccnc(-c2ccccc2)n1 (centres unmarked) [Example 96] | – | – | 10 to 50 | > 800 | –
O=C1Nc2ccccc2C(c2ccccc2)=NC1Nc1cccn(Cc2ccccc2)c1=O (centres unmarked) [Example 97] | – | – | > 50 | > 800 | –
O=C1Nc2ccccc2C(c2ccccc2)=NC1Nc1nc2ccc(Cl)cc2o1 (centres unmarked) [Example 99] | – | – | 10 to 50 | > 800 | –
O=C1Nc2ccccc2C(c2ccccc2)=NC1Nc1nc2ccccc2o1 (centres unmarked) [Example 100] | – | – | 10 to 50 | > 800 | –
O=C1Nc2ccccc2C(c2ccccc2)=NC1Nc1nc2ccccc2s1 (centres unmarked) [Example 101] | – | – | 10 to 50 | > 800 | –
O=C1Nc2ccccc2C(c2ccccc2)=NC1Nc1nc2ccc(F)cc2o1 (centres unmarked) [Example 103] | – | – | 10 to 50 | > 800 | –
O=C1Nc2ccccc2C(c2ccccc2)=NC1Nc1nc2cc(F)ccc2o1 (centres unmarked) [Example 104] | – | – | 10 to 50 | > 800 | –
O=C1Nc2ccccc2C(c2ccccc2)=NC1Nc1nc2c(F)cccc2o1 (centres unmarked) [Example 105] | – | – | > 50 | > 800 | –
Cc1ccc2oc(NC3N=C(c4ccccc4)c4ccccc4NC3=O)nc2c1 (centres unmarked) [Example 106] | – | – | < 10 | > 800 | –
CN(C)c1ccc(-c2nnc(NC3N=C(c4ccccc4)c4ccccc4NC3=O)o2)nc1 (centres unmarked) [Example 108] | – | – | – | > 800 | > 800
O=C1Nc2ccccc2C(c2ccccc2)=NC1Nc1nnc(-c2cccnc2N2CCOCC2)o1 (centres unmarked) [Example 120] | – | – | – | < 400 | 400 to 800

Structure (SMILES) | EC50 ([1]; A549 cells, strain 9320, MOI 0.5, 6 days post infection) [nM] | EC50 [2, 4] [nM] | CC50 [3] [µM] | EC50 [2, 5] [nM] | EC50 [1, 6] [nM]
O=C1Nc2ccccc2C(c2ccccc2)=NC1Nc1nnc(-c2ccc(C(F)(F)F)cc2N2CCOCC2)o1 (centres unmarked) [Example 123] | – | – | – | < 400 | 400 to 800
O=C1Nc2ccccc2C(c2ccccc2)=NC1Nc1nnc(-c2ccc(N3CCOCC3)cc2)o1 (centres unmarked) [Example 124] | – | – | – | – | < 400
O=C1Nc2ccccc2C(c2ccccc2)=NC1Nc1nnc(-c2ccccc2N2CCOCC2)o1 (centres unmarked) [Example 125] | – | – | – | – | 400 to 800
O=C1Nc2ccccc2C(c2ccccc2)=NC1Nc1nnc(-c2ccc(F)cc2N2CCOCC2)o1 (centres unmarked) [Example 127] | – | – | – | < 400 | < 400
O=C1Nc2ccccc2C(c2ccccc2)=NC1Nc1nnc(-c2ccc(-n3cccn3)cc2N2CCOCC2)o1 (centres unmarked) [Example 129] | – | – | – | < 400 | < 400
N#Cc1ccc(-c2nnc(NC3N=C(c4ccccc4)c4ccccc4NC3=O)o2)c(N2CCOCC2)c1 (centres unmarked) [Example 131] | – | – | – | < 400 | < 400
O=C1Nc2ccccc2C(c2ccccc2)=N[C@@H]1Nc1nnc(-c2ncc(F)cc2N2CCOCC2)o1 [Example 136, (S)-3-((5-(5-fluoro-3-morpholinopyridin-2-yl)-1,3,4-oxadiazol-2-yl)amino)-5-phenyl-1,3-dihydro-2H-benzo[e][1,4]diazepin-2-one] | – | – | – | < 400 | < 400
Cc1ccc(-c2nnc(NC3N=C(c4ccccc4)c4ccccc4NC3=O)o2)c(N2CCOCC2)n1 (centres unmarked) [Example 144] | – | – | – | < 400 | < 400
N#Cc1ccc(-c2nnc(N[C@H]3N=C(c4ccccc4)c4ccccc4NC3=O)o2)c(N2CCOCC2)n1 [Example 153] | – | – | – | < 400 | < 400
Cn1c(N2CCOCC2)c(-c2nnc(N[C@H]3N=C(c4ccccc4)c4ccccc4NC3=O)o2)ccc1=O [Example 155] | – | – | – | < 400 | < 400
Cc1nc(N2CCOCC2)c(-c2nnc(N[C@H]3N=C(c4ccccc4)c4ccccc4NC3=O)o2)cc1C#N [Example 158] | – | – | – | < 400 | < 400
N#Cc1cnc(-c2nnc(N[C@H]3N=C(c4ccccc4)c4ccccc4NC3=O)o2)c(N2CCOCC2)c1 [Example 160] | – | – | – | – | < 400
O=C1Nc2ccccc2C(c2ccccc2)=N[C@@H]1Nc1nnc(-c2ncc(Br)cc2N2CCOCC2)o1 [Example 168] | – | – | – | < 400 | < 400
O=C1Nc2ccccc2C(c2ccccc2)=N[C@@H]1Nc1nnc(-c2ncc(C3CC3)cc2N2CCOCC2)o1 [Example 169] | – | – | – | < 400 | < 400
N#Cc1cc(-c2nnc(N[C@H]3N=C(c4ccccc4)c4ccccc4NC3=O)o2)c(N2CCOCC2)nc1C1CC1 [Example 175] | – | – | – | < 400 | 400 to 800
O=C1Nc2ccccc2C(c2ccccc2)=N[C@@H]1Nc1nnc(-c2oc3ccccc3c2N2CCOCC2)o1 [Example 179] | – | – | – | < 400 | < 400
CN1CCN(c2ccccc2-c2nnc(NC3N=C(c4ccccc4)c4ccccc4NC3=O)o2)CC1 (centres unmarked) [Example 224] | – | – | – | > 800 | < 400
O=C1Nc2ccccc2C(c2ccccc2)=N[C@@H]1Nc1nnc(-c2cccnc2N2CCOCC2)o1 [Example 242] | – | – | – | < 400 | < 400
C[C@@H]1COCCN1c1ncccc1-c1nnc(NC2N=C(c3ccccc3)c3ccccc3NC2=O)o1 (some centres unmarked) [Example 245] | – | – | – | < 400 | 400 to 800
O=C1Nc2ccccc2C(c2ccccc2)=N[C@@H]1Nc1nnc(-c2ncc(C(F)(F)F)cc2N2C3CCC2COC3)o1 [Example 250] | – | – | – | < 400 | < 400
O=C1Nc2ccccc2C(c2ccccc2)=N[C@@H]1Nc1nnc(-c2ncc(C(F)(F)F)cc2N2CC3CCC(C2)O3)o1 [Example 251] | – | – | – | < 400 | < 400
